Results reported in patent US9186342B2, “Combination of an NSAID and an amino acid” (LABORATORIOS SENOSIAIN S.A. DE C.V., priority 2010, dated 2015).

Tests used:
[1] = cited from earlier work
[2] = test system: pyresis induced by LPS from E. coli in rats; assay: Anti-pyretic effect, pyresis model induced by LPS from E. coli; format: in vivo, rat; conditions: 15 mg/Kg, from the first 60 minutes
Protocol: After the assessment of the anti-nociceptive and anti-inflammatory effects, the anti-pyretic effect was assessed for increasing doses of the combination IBU:L-ARG in a ratio IBU/L-ARG=3.26, in comparison with the administration of an agent that is well known as capable of control fever, such as acetaminophen (15 mg/Kg) (see FIG. 5).

[3] = test system: inflammation induced with carrageenan in rats; assay: Anti-inflammatory effect, inflammation model by carrageenan; format: in vivo, rat; conditions: 10 mg/Kg, each 8 hours, from the third hour
Protocol: From the results of the previous study, and following a model where inflammation is induced with carrageenan administration for generating a bruise, we determined the anti-inflammatory effect of the L-ARG-IBU combination, in comparison with the administration of a treatment of known effects (positive control: diclofenac 10 mg/Kg), and of a control group, administered each 8 hours for a period of 48 hours. This model presented a maximum inflammation level of towards 6-8 hours, after which inflammation starts to decrease gradually.

[4] = in vivo; cited from earlier work

Compound: CC(C)Cc1ccc(C(C)C(=O)O)cc1 (stereo not shown) [Ibuprofen]
- solubility in water [1]: relatively insoluble in water

Compound: CC(=O)Nc1ccc(O)cc1 [acetaminophen]
- temperature after drug administration [2]: temperature returned to basal levels

Compound: O=C(O)Cc1ccccc1Nc1c(Cl)cccc1Cl [diclofenac]
- development of edema [3]: reduced the development of edema

Compound: ibuprofen arginate
- onset of the analgesic action compared to ibuprofen alone [4]: fast onset of the analgesic action
